Source: US20240158385A1, “NOVEL COMPOUNDS” (Cerevance, Inc., priority 2021, published 2024)

What follows are compounds tested against T1, human KCNK13 (Homo sapiens, UniProt Q9HB14) (assay: KCNK13 antagonist activity, thallium (Tl+) flux FLIPR assay). Details: not given.
T1 construct: expressed in transfected cells
T1 sequence (Q9HB14 1-408): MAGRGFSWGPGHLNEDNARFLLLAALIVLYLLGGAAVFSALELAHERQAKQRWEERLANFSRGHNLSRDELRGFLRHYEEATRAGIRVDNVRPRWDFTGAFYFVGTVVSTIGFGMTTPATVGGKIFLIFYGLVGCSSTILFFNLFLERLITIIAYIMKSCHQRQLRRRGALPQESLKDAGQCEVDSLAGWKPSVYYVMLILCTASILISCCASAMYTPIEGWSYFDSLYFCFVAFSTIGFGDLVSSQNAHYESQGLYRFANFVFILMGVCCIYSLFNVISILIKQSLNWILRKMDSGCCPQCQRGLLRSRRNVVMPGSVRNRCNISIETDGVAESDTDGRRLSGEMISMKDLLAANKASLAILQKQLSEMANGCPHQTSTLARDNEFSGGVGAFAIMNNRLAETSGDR
Format: cell-based
Procedure: KCNK13 antagonist activity was determined by measuring changes in intracellular Thallium (Tl^+) concentrations using a Tl^+ sensitive fluorescent dye. The changes in fluorescent signal were monitored by Fluorescent Imaging Plate Reader (FLIPR™) technology available from Molecular Devices, LLC, US. KCNK13 mediated increases in intracellular Tl+concentration were readily detected by addition of a thallium sulfate stimulus. 24 hours prior to the assay, human embryonic kidney 293 cells (HEK 293 cells) stably expressing human KCNK13 were seeded in cell culture medium in PDL coated black, clear-bottom 384-well plates (commercially available from Corning Inc., 356663) and grown overnight at 37° C., 5% CO2. On the day of the assay, cell culture media was removed and cells were loaded with potassium dye (commercially sold by Molecular Devices, LLC, US, R8222) for 1 hour at room temperature in the dark. Test compounds (at 10 point half log concentration response curves from […]) were added to cells for 15 minutes prior to the addition of thallium sulfate to all wells. The IC50 values were determined from ten point concentration response curves. Curves were generated using the average of two wells for each data point.

SMILES | IC50 [nM]
Nc1nonc1-c1nc2cccnc2n1Cc1cncnc1 [Example 15, 4-[3-(pyrimidin-5-ylmethyl)imidazo[4,5-b]pyridin-2-yl]-1,2,5-oxadiazol-3-amine] | < 200

Same assay, conditions: HEK 293 cells stably expressing human KCNK13; Tl+ sensitive dye, FLIPR; compounds 15 minutes prior to thallium sulfate; 10 point half log curves from 10 PM; read-out: hKCNK13 IC50

SMILES | IC50 [nM]
Brc1nsnc1-c1nc2ccccc2n1Cc1cccnc1 [Example 126, 3-bromo-4-(1-(pyridin-3-ylmethyl)benzimidazol-2-yl)-1,2,5-thiadiazole] | < 100
Nc1nonc1-c1nc2c(F)cccc2n1Cc1cccnc1 (single isomer, unassigned) [Example 87, 4-[4-fluoro-1-(pyridin-3-ylmethyl)benzimidazol-2-yl]-1,2,5-oxadiazol-3-amine] | < 50
Nc1nonc1-c1nc2c(F)c(F)ccc2n1Cc1cccnn1 (single isomer, unassigned) [Example 163, 4-(4,5-difluoro-1-(pyridazin-3-ylmethyl)-benzimidazol-2-yl)-1,2,5-oxadiazol-3-amine] | < 200
Nc1nonc1-c1nc2ccc(F)c(F)c2n1Cc1cccnn1 (single isomer, unassigned) [Example 162, 4-(6,7-difluoro-1-(pyridazin-3-ylmethyl)-benzimidazol-2-yl)-1,2,5-oxadiazol-3-amine] | < 50
Nc1nonc1-c1nc2cccc(F)c2n1Cc1ccc(OC(F)(F)F)nc1 [Example 176, 4-(7-fluoro-1-((6-(trifluoromethoxy)pyridin-3-yl)methyl)-benzimidazol-2-yl)-1,2,5-oxadiazol-3-amine] | < 5000
N#Cc1ccc(Cn2c(-c3nonc3N)nc3cccnc32)cn1 [Example 51, 5-[[2-(4-amino-1,2,5-oxadiazol-3-yl)imidazo[4,5-b]pyridin-3-yl]methyl]pyridine-2-carbonitrile] | < 500
Cc1cccnc1Cn1c(-c2nonc2C)nc2ccccc21 [Example 69, 3-methyl-4-[1-[(3-methylpyridin-2-yl)methyl]benzimidazol-2-yl]-1,2,5-oxadiazole] | < 200
Nc1nonc1-c1nc2cccc(F)c2n1Cc1ccncn1 (single isomer, unassigned) [Example 134, 4-(7-fluoro-1-(pyrimidin-4-ylmethyl)-benzimidazol-2-yl)-1,2,5-oxadiazol-3-amine] | < 50
Cc1nsnc1-c1nc2ccccc2n1Cc1cccnc1 [Example 127, 3-methyl-4-[1-(pyridin-3-ylmethyl)benzimidazol-2-yl]-1,2,5-thiadiazole] | < 100
Cc1nsnc1-c1nc2c(F)cccc2n1Cc1cccnc1 (single isomer, unassigned) [Example 124, 3-[4-fluoro-1-(pyridin-3-ylmethyl)benzimidazol-2-yl]-4-methyl-1,2,5-thiadiazole] | < 50
Cc1snnc1-c1nc2cccc(F)c2n1Cc1cccnc1 (single isomer, unassigned) [Example 128, 4-[7-fluoro-1-(pyridin-3-ylmethyl)benzimidazol-2-yl]-5-methyl-1,2,3-thiadiazole] | < 100
Nc1nonc1-c1nc2cc(F)cc(F)c2n1Cc1ccncc1 [Example 136, 4-(5,7-difluoro-1-(pyridin-4-ylmethyl)-benzimidazol-2-yl)-1,2,5-oxadiazol-3-amine] | < 100
Cc1cccc(Cn2c(-c3nonc3C)nc3ccccc32)n1 [Example 78, 3-methyl-4-[1-[(6-methylpyridin-2-yl)methyl]benzimidazol-2-yl]-1,2,5-oxadiazole] | < 500
Nc1nocc1-c1nc2cccc(F)c2n1Cc1cccnn1 [Example 158, 4-(7-fluoro-1-(pyridazin-3-ylmethyl)-benzimidazol-2-yl)isoxazol-3-amine] | < 5000
[2H]C([2H])(c1cccnc1)n1c(-c2nonc2C)nc2c(F)cccc21 (single isomer, unassigned) [Example 30, 3-[1-[dideuterio(pyridin-3-yl)methyl]-4-fluoro-benzimidazol-2-yl]-4-methyl-1,2,5-oxadiazole] | < 50
Nc1nonc1-c1nc2ccc(F)cc2n1Cc1cccnc1 (single isomer, unassigned) [Example 118, 4-[6-fluoro-1-(pyridin-3-ylmethyl)benzimidazol-2-yl]-1,2,5-oxadiazol-3-amine] | < 50
Nc1nonc1-c1nc2cccc(F)c2n1Cc1cncnc1 [Example 3, 4-[7-fluoro-1-(pyrimidin-5-ylmethyl)benzimidazol-2-yl]-1,2,5-oxadiazol-3-amine] | < 50
Nc1nonc1-c1nc2cccc(F)c2n1Cc1ccc(O)nn1 [Example 150, 6-((2-(4-amino-1,2,5-oxadiazol-3-yl)-7-fluoro-benzimidazol-1-yl)methyl)pyridazin-3-ol] | < 200

SMILES | IC50 [nM]
COc1cc(Cn2c(-c3nonc3N)nc3ccccc32)ccn1 [Example 93, 4-[1-[(2-methoxypyridin-4-yl)methyl]benzimidazol-2-yl]-1,2,5-oxadiazol-3-amine] | < 50
Nc1nonc1-c1nc2cc(F)cnc2n1Cc1cncnc1 [Example 12, 4-[6-fluoro-3-(pyrimidin-5-ylmethyl)imidazo[4,5-b]pyridin-2-yl]-1,2,5-oxadiazol-3-amine] | < 200
Cc1nonc1-c1nc2ccccc2n1Cc1ccc(Cl)nc1 [Example 60, 3-[1-[(6-chloropyridin-3-yl)methyl]benzimidazol-2-yl]-4-methyl-1,2,5-oxadiazole] | < 100
Nc1nonc1-c1nc2ccc(F)c(F)c2n1Cc1ccncc1 [Example 145, 4-(6,7-difluoro-1-(pyridin-4-ylmethyl)-benzimidazol-2-yl)-1,2,5-oxadiazol-3-amine] | < 50
Nc1nonc1-c1nc2ccccc2n1Cc1cccnc1C(F)(F)F [Example 109, 4-[1-[[2-(trifluoromethyl)pyridin-3-yl]methyl]benzimidazol-2-yl]-1,2,5-oxadiazol-3-amine] | < 500
COc1ccc(Cn2c(-c3nonc3N)nc3cccc(F)c32)nn1 (single isomer, unassigned) [Example 152, 4-(7-fluoro-1-((6-methoxypyridazin-3-yl)methyl)-benzimidazol-2-yl)-1,2,5-oxadiazol-3-amine] | < 50
Cc1cc(Cn2c(-c3nonc3C)nc3ccccc32)ccn1 [Example 74, 3-methyl-4-[1-[(2-methylpyridin-4-yl)methyl]benzimidazol-2-yl]-1,2,5-oxadiazole] | < 500
Cc1nonc1-c1nc2cccc(F)c2n1Cc1cnc(C#N)nc1 [Example 44, 5-[[7-fluoro-2-(4-methyl-1,2,5-oxadiazol-3-yl)benzimidazol-1-yl]methyl]pyrimidine-2-carbonitrile] | < 50
N#Cc1ccc(Cn2c(-c3nonc3N)nc3cccnc32)nn1 [Example 177, 6-((2-(4-amino-1,2,5-oxadiazol-3-yl)-3H-imidazo[4,5-b]pyridin-3-yl)methyl)pyridazine-3-carbonitrile] | < 1000
Cc1onc(-c2nc3ccccc3n2Cc2cccnc2)c1C [Example 111, 4,5-dimethyl-3-[1-(pyridin-3-ylmethyl)benzimidazol-2-yl]isoxazole] | < 500
Cc1nonc1-c1nc2ccccc2n1Cc1cccnc1 [Example 101, 3-methyl-4-[1-(pyridin-3-ylmethyl)benzimidazol-2-yl]-1,2,5-oxadiazole] | < 100
Nc1nonc1-c1nc2c(F)ccc(F)c2n1Cc1ccncc1 [Example 155, 4-(4,7-difluoro-1-(pyridin-4-ylmethyl)-benzimidazol-2-yl)-1,2,5-oxadiazol-3-amine] | < 50
Cc1nonc1-c1nc2ccccc2n1Cc1cc[n+]([O-])cc1 [Example 77, 3-methyl-4-[1-[(1-oxidopyridin-1-ium-4-yl)methyl]benzimidazol-2-yl]-1,2,5-oxadiazole] | < 1000
N#Cc1ncc(Cn2c(-c3nonc3N)nc3c(F)ccc(F)c32)cn1 [Example 28, 5-[[2-(4-amino-1,2,5-oxadiazol-3-yl)-4,7-difluoro-benzimidazol-1-yl]methyl]pyrimidine-2-carbonitrile] | < 50
Cc1nonc1-c1nc2c(F)cccc2n1Cc1cnc(C#N)nc1 [Example 45, 5-[[4-fluoro-2-(4-methyl-1,2,5-oxadiazol-3-yl)benzimidazol-1-yl]methyl]pyrimidine-2-carbonitrile] | < 100
CNc1cccc2nc(-c3nonc3C)n(Cc3cccnc3)c12 [Example 81, N-methyl-2-(4-methyl-1,2,5-oxadiazol-3-yl)-3-(pyridin-3-ylmethyl)benzimidazol-4-amine] | < 1000
Nc1nonc1-c1nc2cc(F)ccc2n1Cc1ccncc1 [Example 92, 4-[5-fluoro-1-(pyridin-4-ylmethyl)benzimidazol-2-yl]-1,2,5-oxadiazol-3-amine] | < 50
C[C@@H](c1cccnc1)n1c(-c2nonc2N)nc2cccc(F)c21 [Example 161, (S)-4-(7-fluoro-1-(1-(pyridin-3-yl)ethyl)-benzimidazol-2-yl)-1,2,5-oxadiazol-3-amine] | < 1000
